# Laboratory results from patent US8575158B2, “1-phenyl-substituted heterocyclyl derivatives and their use as prostaglandin D2 receptor modulators” (Actelion Pharmaceuticals Ltd., priority 2010, dated 2013).
# Target: T1, hCRTH2 receptor (Homo sapiens, UniProt Q9Y5Y4)
# T1 construct: expressed in transfected cells; host or cells: HEK293
# T1 sequence (Q9Y5Y4 1-395): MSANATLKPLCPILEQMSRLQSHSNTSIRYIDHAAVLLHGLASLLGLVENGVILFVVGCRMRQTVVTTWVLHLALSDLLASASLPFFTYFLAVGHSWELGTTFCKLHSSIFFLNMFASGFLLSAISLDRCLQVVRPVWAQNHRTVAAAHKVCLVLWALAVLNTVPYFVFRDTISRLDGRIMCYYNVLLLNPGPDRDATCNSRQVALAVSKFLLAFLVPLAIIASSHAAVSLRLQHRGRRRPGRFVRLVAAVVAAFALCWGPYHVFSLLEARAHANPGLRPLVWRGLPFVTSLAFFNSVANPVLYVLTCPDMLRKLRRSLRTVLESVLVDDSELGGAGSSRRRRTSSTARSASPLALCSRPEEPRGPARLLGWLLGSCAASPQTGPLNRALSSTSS
# Assay: Radioligand displacement assay (3H-PGD2) on hCRTH2 receptor membranes
# Format: binding
# Conditions: antagonistic activity
# Protocol: First, recombinant HEK293-hCRTH2 cells were detached from culture plates into 5 ml buffer A/plate (Buffer A: 5 mM Tris, 1 mM MgCl2-6H2O pH=7.4) using a rubber policeman. Cells were then transferred into centrifugation tubes and centrifuged for 5 min at 400 g. The cell pellet was resuspended in the same buffer and tubes were frozen at −80° C. Cells were thawed and membrane fragments were generated by homogenization using a polytron homogenizer (30 seconds). The membrane fragments were then centrifuged at 3000 g for 20 minutes and resuspended in buffer C (Buffer C: 75 mM Tris, 25 mM MgCl2, 250 mM Saccharose pH 7.4). Aliquots of membrane fragments were stored at −20° C.
# Binding assay was performed in a final assay volume of 250 μl. First, 25 μl of test compound, previously diluted in Binding-Buffer (Binding-Buffer: 50 mM Tris-Base, 100 mM NaCl, 1 mM EDTA, 0.1% BSA (protease free), 0.01% NaN3, 10 mM MnCl2, pH 7.0) was placed into each well. After addition of 75 μl Binding-Buffer, 50 μl of the radioligand ^3H-PGD2 (at 2.5 nM (220.000 dpm/well) from ANAWA ART0662) was added to each well. Binding assay was started by addition of 100 μl CRTH2 membrane fragments, reaching a final concentration of 20 μg/well. For non-specific binding, PGD2 was added to the reaction mixture to […] final concentration.
# This assay mix was incubated for 90 minutes at room temperature and then filtered through a GF/C filter 96-well plate which was pre-soaked for 3 hours in 0.5% polyethyleneimine (PEI). The filter-wells were washed three times with ice cold Binding-Buffer. Then, 40 μl of Microscint-40 (Packard) was added to each well and the retained radioactivity quantified in a Topcount (Packard).
# [1] = 3H-PGD2 displacement on HEK293-hCRTH2 membrane fragments
"IC50 (3H-PGD2 radioligand displacement, HEK293-hCRTH2 membranes)",IC50 [1],Structure (SMILES)
9.37 nM,–,"O=C(O)COc1ccc(Cl)cc1C1c2ccc(F)cc2CCN1C(=O)C1CC1c1ccccc1Cl (mixture of isomers) [Example 430, (±)-(4-Chloro-2-{2-[2-(trans-2-chloro-phenyl)-cyclopropanecarbonyl]-6-fluoro-1,2,3,4-tetrahydro-isoquinolin-1-yl}-phenoxy)-acetic acid]"
–,7.6 nM,"O=C(O)COc1ccc(F)cc1C1c2ccccc2CCN1C(=O)OCc1ccccc1 (racemic) [Example 1, (±)-1-(2-Carboxymethoxy-5-fluoro-phenyl)-3,4-dihydro-1H-isoquinoline-2-carboxylic acid benzyl ester]"
–,62.7 nM,"Cc1ccc(OCC(=O)O)c(C2c3ccccc3CCN2C(=O)OCc2ccccc2)c1 (racemic) [Example 3, (±)-1-(2-Carboxymethoxy-5-methyl-phenyl)-3,4-dihydro-1H-isoquinoline-2-carboxylic acid benzyl ester]"
–,10.5 nM,"O=C(O)COc1ccc(Br)cc1C1c2ccccc2CCN1C(=O)OCc1ccccc1 (racemic) [Example 4, (±)-1-(5-Bromo-2-carboxymethoxy-phenyl)-3,4-dihydro-1H-isoquinoline-2-carboxylic acid benzyl ester]"
–,81.2 nM,"O=C(O)COc1ccc(F)cc1C1c2cc(Br)ccc2CCN1C(=O)OCc1ccccc1 (racemic) [Example 5, (±)-7-Bromo-1-(2-carboxymethoxy-5-fluoro-phenyl)-3,4-dihydro-1H-isoquinoline-2-carboxylic acid benzyl ester]"
–,30.1 nM,"O=C(O)COc1cc(F)c(F)cc1C1c2ccccc2CCN1C(=O)OCc1ccccc1 (racemic) [Example 6, (±)-1-(2-Carboxymethoxy-4,5-difluoro-phenyl)-3,4-dihydro-1H-isoquinoline-2-carboxylic acid benzyl ester]"
–,7.9 nM,"O=C(O)COc1ccc(F)cc1C1c2cccc(Br)c2CCN1C(=O)OCc1ccccc1 (racemic) [Example 7, (±)-5-Bromo-1-(2-carboxymethoxy-5-fluoro-phenyl)-3,4-dihydro-1H-isoquinoline-2-carboxylic acid benzyl ester]"
–,35.5 nM,"O=C(O)COc1ccc(F)cc1C1c2cc(F)c(F)cc2CCN1C(=O)OCc1ccccc1 (racemic) [Example 9, (±)-1-(2-Carboxymethoxy-5-fluoro-phenyl)-6,7-difluoro-3,4-dihydro-1H-isoquinoline-2-carboxylic acid benzyl ester]"
–,74 nM,"O=C(O)COc1ccc(Br)cc1C1c2cc(F)c(F)cc2CCN1C(=O)OCc1ccccc1 (racemic) [Example 10, (±)-1-(5-Bromo-2-carboxymethoxy-phenyl)-6,7-difluoro-3,4-dihydro-1H-isoquinoline-2-carboxylic acid benzyl ester]"
–,13.3 nM,"N#Cc1ccc(OCC(=O)O)c(C2c3cc(F)c(F)cc3CCN2C(=O)OCc2ccccc2)c1 (racemic) [Example 11, (±)-1-(2-Carboxymethoxy-5-cyano-phenyl)-6,7-difluoro-3,4-dihydro-1H-isoquinoline-2-carboxylic acid benzyl ester]"
–,4.59 nM,"O=C(O)COc1ccc(F)cc1C1c2cccc(C(F)(F)F)c2CCN1C(=O)OCc1ccccc1 (racemic) [Example 12, (±)-1-(2-Carboxymethoxy-5-fluoro-phenyl)-5-trifluoromethyl-3,4-dihydro-1H-isoquinoline-2-carboxylic acid benzyl ester]"
–,18.8 nM,"O=C(O)COc1ccc(F)cc1C1c2ccc(F)c(F)c2CCN1C(=O)OCc1ccccc1 (racemic) [Example 14, (±)-1-(2-Carboxymethoxy-5-fluoro-phenyl)-5,6-difluoro-3,4-dihydro-1H-isoquinoline-2-carboxylic acid benzyl ester]"
–,10.1 nM,"O=C(O)COc1ccc(Cl)cc1C1c2ccc(F)c(F)c2CCN1C(=O)OCc1ccccc1 (racemic) [Example 15, (±)-1-(2-Carboxymethoxy-5-chloro-phenyl)-5,6-difluoro-3,4-dihydro-1H-isoquinoline-2-carboxylic acid benzyl ester]"
–,4.34 nM,"N#Cc1ccc(OCC(=O)O)c(C2c3ccc(F)c(F)c3CCN2C(=O)OCc2ccccc2)c1 (racemic) [Example 16, (±)-1-(2-Carboxymethoxy-5-cyano-phenyl)-5,6-difluoro-3,4-dihydro-1H-isoquinoline-2-carboxylic acid benzyl ester]"
–,889 nM,"CN(C)S(=O)(=O)c1ccc(OCC(=O)O)c(C2c3ccccc3CCN2C(=O)OCc2ccccc2)c1 (racemic) [Example 17, (±)-1-(2-Carboxymethoxy-5-dimethylsulfamoyl-phenyl)-3,4-dihydro-1H-isoquinoline-2-carboxylic acid benzyl ester]"
–,5.43 nM,"O=C(O)COc1ccc(Cl)cc1C1c2cccc(F)c2CCN1C(=O)OCc1ccccc1 (racemic) [Example 18, (±)-1-(2-Carboxymethoxy-5-chloro-phenyl)-5-fluoro-3,4-dihydro-1H-isoquinoline-2-carboxylic acid benzyl ester]"
–,9.38 nM,"N#Cc1ccc(OCC(=O)O)c(C2c3cccc(F)c3CCN2C(=O)OCc2ccccc2)c1 (racemic) [Example 19, (±)-1-(2-Carboxymethoxy-5-cyano-phenyl)-5-fluoro-3,4-dihydro-1H-isoquinoline-2-carboxylic acid benzyl ester]"
–,50.7 nM,"O=C(O)COc1ccc(C(F)(F)F)cc1C1c2ccccc2CCN1C(=O)OCc1ccccc1 (racemic) [Example 20, (±)-1-(2-Carboxymethoxy-5-trifluoromethyl-phenyl)-3,4-dihydro-1H-isoquinoline-2-carboxylic acid benzyl ester]"
–,6.87 nM,"O=C(O)COc1ccc(Cl)cc1C1c2ccccc2CCN1C(=O)OCc1ccccc1 (racemic) [Example 21, (±)-1-(2-Carboxymethoxy-5-chloro-phenyl)-3,4-dihydro-1H-isoquinoline-2-carboxylic acid benzyl ester]"
–,483 nM,"CC(C)c1ccc(OCC(=O)O)c(C2c3ccccc3CCN2C(=O)OCc2ccccc2)c1 (racemic) [Example 22, (±)-1-(2-Carboxymethoxy-5-isopropyl-phenyl)-3,4-dihydro-1H-isoquinoline-2-carboxylic acid benzyl ester]"
–,227 nM,"O=C(O)COc1cc2c(cc1C1c3ccccc3CCN1C(=O)OCc1ccccc1)OCO2 (racemic) [Example 23, (±)-1-(6-Carboxymethoxy-benzo[1,3]dioxol-5-yl)-3,4-dihydro-1H-isoquinoline-2-carboxylic acid benzyl ester]"
–,83.7 nM,"COc1ccc(OCC(=O)O)c(C2c3ccccc3CCN2C(=O)OCc2ccccc2)c1 (racemic) [Example 24, (±)-1-(2-Carboxymethoxy-5-methoxy-phenyl)-3,4-dihydro-1H-isoquinoline-2-carboxylic acid benzyl ester]"
–,196 nM,"O=C(O)COc1c(F)cc(F)cc1C1c2ccccc2CCN1C(=O)OCc1ccccc1 (racemic) [Example 33, (±)-1-(2-Carboxymethoxy-3,5-difluoro-phenyl)-3,4-dihydro-1H-isoquinoline-2-carboxylic acid benzyl ester]"
–,7.22 nM,"O=C(O)COc1ccc(F)cc1C1c2cccc(F)c2CCN1C(=O)OCc1ccccc1 (racemic) [Example 34, (±)-1-(2-Carboxymethoxy-5-fluoro-phenyl)-5-fluoro-3,4-dihydro-1H-isoquinoline-2-carboxylic acid benzyl ester]"
–,19.7 nM,"COc1cccc2c1CCN(C(=O)OCc1ccccc1)C2c1cc(F)ccc1OCC(=O)O (racemic) [Example 35, (±)-1-(2-Carboxymethoxy-5-fluoro-phenyl)-5-methoxy-3,4-dihydro-1H-isoquinoline-2-carboxylic acid benzyl ester]"
–,57.1 nM,"COc1cc2c(cc1OC)C(c1cc(F)ccc1OCC(=O)O)N(C(=O)OCc1ccccc1)CC2 (racemic) [Example 36, (±)-1-(2-Carboxymethoxy-5-fluoro-phenyl)-6,7-dimethoxy-3,4-dihydro-1H-isoquinoline-2-carboxylic acid benzyl ester]"
–,19.9 nM,"COc1ccc2c(c1)C(c1cc(F)ccc1OCC(=O)O)N(C(=O)OCc1ccccc1)CC2 (racemic) [Example 37, (±)-1-(2-Carboxymethoxy-5-fluoro-phenyl)-7-methoxy-3,4-dihydro-1H-isoquinoline-2-carboxylic acid benzyl ester]"
